Paper PMC6325233, “A Novel Actin Binding Drug with In Vivo Efficacy” (Antimicrobial Agents and Chemotherapy, 2018)
“Also recorded” adds a separate entry of the source. Read-outs that look alike come from different tables or passages of the source.

Tests used:
[1] = test system: S. cerevisiae (diploid, BY4743) actin cables; assay: Actin cable visualization, TRITC-labeled phalloidin; type: cell-based; settings: for Cells without actin cables, Avg / Cells with actin cables, Avg: average of two replicates; for Cells without actin cables, Avg: untreated 25.87; for Cells with actin cables, Avg: untreated 74.13
Procedure: S. pombe and S. cerevisiae cells (OD600 of 0.6 to 0.8) were incubated with 1× MIC of alkyne-OF at 30°C, with samples removed at 10, 30, and 60 min postincubation. The cells were washed in PBS and fixed with 3.7% formaldehyde. The cells were permeabilized by adding 0.5% Triton X-100. The cells were washed with PBS before the Click reaction with azide-derivatized Alexa Fluor 488 (Click-iT EdU imaging kit; Thermo Fisher Scientific). The cells were visualized with an Olympus FV1000 confocal microscope. A competition assay was carried out by pretreating cells with 1× MIC of the native occidiofungin followed by treatment with alkyne-OF. […] A 6.6 µM concentration of tetramethyl rhodamine isothiocyanate (TRITC)-tagged phalloidin was added to formaldehyde-fixed cells (permeabilized with 0.2% Triton X-100) for 30 min at room temperature. The cells were washed in PBS, added to a concanavalin A-treated glass slides, and overlaid with Vectashield plus DAPI. Images were viewed using a Nikon 50i fluorescence microscope with a 100× oil immersion objective and Texas Red and DAPI filter sets. Random images were captured using a Retiga EXi black and white charge-coupled-device (CCD) camera and Image Q software. All images were captured using the same exposure settings, with the image contrast altered postcapture using CorelDraw.

cancer cell lines = settings: several cancer cell lines vs human fibroblast control; cited from earlier work
Procedure: Natural products with in vitro antifungal properties that target the actin cytoskeleton were previously reported ([51]). […] Occidiofungin, on the other hand, is well tolerated at 5 mg/kg or 20 mg/kg when administered intravenously or subcutaneously, respectively ([22], [25]). This dose is much higher than the MIC of occidiofungin against several fungal pathogens. ...

Candida krusei 28415 = assay: MIC susceptibility testing (fluconazole-resistant strain); type: cell-based; settings: CLSI M27-A3
Procedure: (§1) Occidiofungin was purified from a liquid culture of Burkholderia contaminans MS14 as previously described ([21]). MIC susceptibility testing was performed according to the CLSI M27-A3 and M38-A2 standards for the susceptibility testing of yeasts and filamentous fungi, respectively. S. cerevisiae deletion mutants were obtained from the commercially available BY4741 deletion library (Thermo Scientific).

[2] = test system: rabbit skeletal muscle filamentous actin; assay: In vitro actin filament microscopy; type: biochemical; settings: 24 μg actin with 4 or 8 μg native occidiofungin (8 μg alkyne-OF), 15 min
Procedure: Purified rabbit skeletal muscle filamentous actin (catalog number AKF99) and G-actin (catalog number AKL95) were purchased from Cytoskeleton, Inc. Actin was reconstituted in Milli-Q water to achieve a stock concentration of 0.4 mg/ml in a buffer that consisted of 5 mM Tris-HCl (pH 8.0), 0.2 mM CaCl2, 0.2 mM ATP, 2 mM MgCl2, and 5% (wt/vol) sucrose as directed by the supplier. This solution was stored at −80°C in 50-μl aliquots until use. Immediately before use, each aliquot was thawed by placing it in a 37°C water bath for 5 min and then at room temperature. For all studies, 24 μg of F- or G-actin was used with 8 μg alkyne-OF. F-actin filaments were reacted with native occidiofungin for 15 min at room temperature at molar ratios of 1:10 (24 μg actin to 8 μg native occidiofungin) and 1:5 (24 μg actin to 4 μg native occidiofungin). As per the manufacturer’s instructions, Acti-stain 670 phalloidin (Cytoskeleton, Inc.) was used as a control in an in vitro actin filament binding study. Actin filaments treated with DMSO (solvent blank negative control) were stained and observed for comparison. The actin filaments were visualized on an Olympus FV1000 confocal microscope. Pulldown assays were performed using alkyne-OF with azide-biotin (Click-iT protein reaction buffer kit; Thermo Fisher Scientific), according to the manufacturer’s instructions. […]

Candida albicans 28200 = assay: MIC susceptibility testing; type: cell-based; settings: CLSI M27-A3
Procedure: as §1

[3] = test system: Trichophyton mentagrophytes 28556; assay: MIC susceptibility testing; type: cell-based; settings: CLSI M38-A2; 96 hours
Procedure: as §1

[4] = test system: Trichophyton rubrum 28659; assay: MIC susceptibility testing; type: cell-based; settings: CLSI M38-A2; 96 hours
Procedure: as §1

[5] = test system: Trichophyton mentagrophytes 28641; assay: MIC susceptibility testing; type: cell-based; settings: CLSI M38-A2; 96 hours
Procedure: as §1

[6] = test system: Mucor circinelloides 19445; assay: MIC susceptibility testing; type: cell-based; settings: CLSI M38-A2
Procedure: as §1

Candida tropicalis 28478 = assay: MIC susceptibility testing; type: cell-based; settings: CLSI M27-A3
Procedure: as §1

Candida krusei 28570 = assay: MIC susceptibility testing; type: cell-based; settings: CLSI M27-A3
Procedure: as §1

[7] = test system: Aspergillus fumigatus 28436; assay: MIC susceptibility testing; type: cell-based; settings: CLSI M38-A2
Procedure: as §1

Candida tropicalis 28272 = assay: MIC susceptibility testing; type: cell-based; settings: CLSI M27-A3
Procedure: as §1

Candida glabrata 28271 = assay: MIC susceptibility testing; type: cell-based; settings: CLSI M27-A3
Procedure: as §1

Substance: occidiofungin
- Cells with actin cables, % [1]: 1.32%
- Cells without actin cables, Avg ([1]; 0.5X MIC, 30 min, SD 1.45): 97.66%
- Cells with actin cables, Avg ([1]; 0.5X MIC, 30 min, SD 1.45): 2.34%
- Cells without actin cables, % ([1]; 0.5X MIC, 30 min, replicate 1): 98.68%
- Cells with actin cables, % ([1]; 0.5X MIC, 30 min, replicate 2): 3.36%
- Cells without actin cables, % ([1]; 0.5X MIC, 30 min, replicate 2): 96.64%
- Cells without actin cables, Avg ([1]; 0.5X MIC, 60 min, SD 0.25): 99.82%
- Cells with actin cables, Avg ([1]; 0.5X MIC, 60 min, SD 0.25): 0.18%
- Cells with actin cables, % ([1]; 0.5X MIC, 60 min, replicate 1): 0%
- Cells without actin cables, % ([1]; 0.5X MIC, 60 min, replicate 1): 100%
- Cells with actin cables, % ([1]; 0.5X MIC, 60 min, replicate 2): 0.36%
- Cells without actin cables, % ([1]; 0.5X MIC, 60 min, replicate 2): 99.64%
- effect on actin organization ([1]; 0.5× MIC, 30 min): an accumulation of actin patches and/or aggregates of F-actin were observed throughout the treated cells with a concomitant loss of actin cables; also recorded: a loss of actin cables and the accumulation of actin aggregates
- sensitivity of several cancer cell lines vs human fibroblast cell line (cancer cell lines): approximately 10 -fold
- MIC, 50% inhibition (Candida krusei 28415; 24 hours): 4 µg/mL
- MIC, 100% inhibition (Candida krusei 28415; 24 hours): 8 µg/mL
- MIC, 50% inhibition (Candida krusei 28415; 48 hours): 4 µg/mL
- MIC, 100% inhibition (Candida krusei 28415; 48 hours): 8 µg/mL
- effect on F-actin morphology [2]: the morphology of F-actin changed in the presence of occidiofungin in a dose-dependent manner
- effect on F-actin morphology ([2]; listed as native occidiofungin): a high degree of aggregation of the filaments
- MIC, 50% inhibition (Candida albicans 28200; 24 hours): 4 µg/mL
- MIC, 100% inhibition (Candida albicans 28200; 24 hours): 8 µg/mL
- MIC, 50% inhibition (Candida albicans 28200; 48 hours): 4 µg/mL
- MIC, 100% inhibition (Candida albicans 28200; 48 hours): 8 µg/mL
- MIC, 80% inhibition [3]: 1 µg/mL
- MIC, 100% inhibition [3]: 2 µg/mL
- MIC, 80% inhibition [4]: 1 µg/mL
- MIC, 100% inhibition [4]: 2 µg/mL
- MIC, 80% inhibition [5]: 1 µg/mL
- MIC, 100% inhibition [5]: 2 µg/mL
- MIC, 50% inhibition ([6]; 24 hours): 4 µg/mL
- MIC, 100% inhibition ([6]; 24 hours): 8 µg/mL
- MIC, 50% inhibition ([6]; 48 hours): 4 µg/mL
- MIC, 100% inhibition ([6]; 48 hours): 8 µg/mL
- MIC, 50% inhibition (Candida tropicalis 28478; 24 hours): 4 µg/mL
- MIC, 100% inhibition (Candida tropicalis 28478; 24 hours): 8 µg/mL
- MIC, 50% inhibition (Candida tropicalis 28478; 48 hours): 4 µg/mL
- MIC, 100% inhibition (Candida tropicalis 28478; 48 hours): 8 µg/mL
- MIC, 50% inhibition (Candida krusei 28570; 24 hours): 4 µg/mL
- MIC, 100% inhibition (Candida krusei 28570; 24 hours): 8 µg/mL
- MIC, 50% inhibition (Candida krusei 28570; 48 hours): 4 µg/mL
- MIC, 100% inhibition (Candida krusei 28570; 48 hours): 8 µg/mL
- MIC, 50% inhibition ([7]; 24 hours): 2 µg/mL
- MIC, 100% inhibition ([7]; 24 hours): 4 µg/mL
- MIC, 50% inhibition ([7]; 48 hours): 2 µg/mL
- MIC, 100% inhibition ([7]; 48 hours): 4 µg/mL
- MIC, 50% inhibition (Candida tropicalis 28272; 24 hours): 4 µg/mL
- MIC, 100% inhibition (Candida tropicalis 28272; 24 hours): 8 µg/mL
- MIC, 50% inhibition (Candida tropicalis 28272; 48 hours): 4 µg/mL
- MIC, 100% inhibition (Candida tropicalis 28272; 48 hours): 8 µg/mL
- MIC, 50% inhibition (Candida glabrata 28271; 24 hours): 4 µg/mL
- MIC, 100% inhibition (Candida glabrata 28271; 24 hours): 8 µg/mL
- MIC, 50% inhibition (Candida glabrata 28271; 48 hours): 4 µg/mL
- MIC, 100% inhibition (Candida glabrata 28271; 48 hours): 8 µg/mL
